Reference: patent US4883863A, “Tripeptide derivatives and antiplasmin agents containing the same” (Nitto Boseki Co., Ltd., priority 1987, dated 1989)
pIC50: −log10 of the molar value. Where a name gives a salt, the structure may show the parent alone. Read-outs that look alike come from different tables or passages of the source. Where a SMILES comes first, the peptide text is derived from it. [ ]: non-standard residue; d: D form. The star is where a group is joined. Tos = Cc1ccc(S(=O)(=O)*)cc1

Key:
plasmin [1] = biological target: T1, plasmin (Homo sapiens, UniProt P00747); set-up: purchased Sankyo (Color Test α2 -D1 Kit); settings: background, related art; cited from earlier work
Target sequence in this assay (P00747 581-810 limits assumed, species assumed): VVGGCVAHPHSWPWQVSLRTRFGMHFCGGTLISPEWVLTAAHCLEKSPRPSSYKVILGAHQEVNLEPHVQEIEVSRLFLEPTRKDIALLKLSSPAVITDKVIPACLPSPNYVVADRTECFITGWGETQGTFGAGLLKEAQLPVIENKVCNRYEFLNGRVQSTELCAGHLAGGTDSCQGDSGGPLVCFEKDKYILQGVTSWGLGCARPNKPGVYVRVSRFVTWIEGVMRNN
Target sequence in this assay (P00747 97-580 partner limits assumed, species assumed): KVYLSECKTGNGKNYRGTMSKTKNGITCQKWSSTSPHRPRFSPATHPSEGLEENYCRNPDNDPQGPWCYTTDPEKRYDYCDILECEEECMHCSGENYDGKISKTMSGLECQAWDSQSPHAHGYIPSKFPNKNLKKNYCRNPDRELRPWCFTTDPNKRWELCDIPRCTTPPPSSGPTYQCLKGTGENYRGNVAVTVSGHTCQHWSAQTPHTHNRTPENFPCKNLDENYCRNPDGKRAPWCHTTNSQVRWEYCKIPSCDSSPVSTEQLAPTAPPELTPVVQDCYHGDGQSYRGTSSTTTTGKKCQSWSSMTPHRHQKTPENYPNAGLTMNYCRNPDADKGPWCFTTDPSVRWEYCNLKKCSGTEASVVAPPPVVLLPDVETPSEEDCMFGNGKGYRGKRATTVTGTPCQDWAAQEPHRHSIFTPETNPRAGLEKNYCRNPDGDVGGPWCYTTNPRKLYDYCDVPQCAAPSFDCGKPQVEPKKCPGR

thrombin and trypsin = settings: background, related art; cited from earlier work
human plasma kallikrein = biological target: T2, human plasma kallikrein (Homo sapiens, UniProt P03952); experiment: Kallikrein-inhibiting activity, synthetic substrate S-2302; assay type: biochemical; settings: S-2302, pH 8.0, 37° C.
T2 construct: purchased Kabi Co., Ltd
Text: (§1) Synthetic substrates used for testing the inhibitory activity of the inhibitors on decomposition of substrates by the enzymes were as follows. For plasmin, PS-994 (H--D--Lys(Tos)--Phe--Lys--CHA·2HCl, mfd. by NITTO BOSEKI Co., Ltd.) was used; for thrombin and trypsin, PS-915 (H--D--Phe--Pro--Arg--CHA·2HCl, mfd. by NITTO BOSEKI Co., Ltd.); for Factor Xa, PS-2000 (Z--D--Lys--(HCO)--Gly--Arg--CHA·HCl, mfd. by NITTO BOSEKI Co., Ltd.); and for kallikrein, S-2302 (H--D--Pro--Phe--Arg--pNA, mfd., by Kabi Co., Ltd.).
(§2) As plasmin, standard plasmin of Sankyo Color Test α2 -D1 Kit was used in an amount of 0.3CU/ml. As thrombin, that of Sankyo Color Test ATIII kit was used in an amount of 1.2 NIHU/ml. As trypsin, that of cord 3703 of Worthington was used in an amount of 2 μg/ml. As human Factor Xa, that of Boehringer Manheim Co., Ltd. was used in an amount of 0.25 U/ml. As human plasma kallikrein, that of Kabi Co., Ltd. was used in an amount of 0.12 U/ml. As terminating color reagents, those for Sankyo Color Test Kit were used. The reactions were carried out at 37° C. unless otherwise specified.
Each of aqueous solutions (0.1 ml) of the inhibitors which solutions were various in their respective concentrations was added to 0.4 ml of a buffer solution (a 150 mM aqueous sodium chloride solution containing 50 mM Tris, pH 8.0), and the resulting mixture was heated for 5 minutes. Then, 0.1 ml of a kallikrein solution [containing 0.5% bovine serum albumin (No. A8022 available from Sigma Chemical Co.)] was added, followed by incubation for 5 minutes. Subsequently, a 10 mM S-2302 aqueous solution (0.1 ml) was added. The reaction was terminated by addition of a 20% aqueous acetic acid solution. Absorbance at 405 nm was measured and IC50 was measured in the manner described above.

trypsin = biological target: T3, trypsin (Bos taurus, UniProt P00760); experiment: Trypsin-inhibiting activity, synthetic substrate PS-915; assay type: biochemical; settings: PS-915, pH 8.0, 37° C.
T3 construct: purchased Worthington 3703
T3 sequence (P00760 24-246): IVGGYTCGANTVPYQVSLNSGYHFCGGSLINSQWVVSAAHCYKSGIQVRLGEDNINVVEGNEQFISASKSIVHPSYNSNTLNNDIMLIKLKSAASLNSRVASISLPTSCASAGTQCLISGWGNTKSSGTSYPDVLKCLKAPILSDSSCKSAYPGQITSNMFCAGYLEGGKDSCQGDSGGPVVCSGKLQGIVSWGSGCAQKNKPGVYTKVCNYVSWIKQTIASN
Text: as §1, §2
Each of aqueous solutions (0.1 ml) of the inhibitors which solutions were various in their respective concentrations was added to 0.5 ml of a buffer solution (a 150 mM aqueous sodium chloride solution containing 150 mM Tris, pH 8.0), and the resulting solution was heated for 5 minutes. Then, 0.1 ml of a trypsin solution was added, followed by incubation for 5 minutes. Subsequently, 0.1 ml of a PS-915 solution (10 mM) was added, followed by incubation for 5 minutes. Thereafter, 2 ml of terminating color reagent [containing […] of soybean trypsin inhibitor (No. T-9003, available from Sigma Chemical Co.)] was added. After standing for 10 minutes, absorbance at 700 nm was measured and IC50 was determined in the manner described above.

human Factor Xa = biological target: T4, human Factor Xa (Homo sapiens, UniProt P00742); experiment: Factor Xa-inhibiting activity, synthetic substrate PS-2000; assay type: biochemical; settings: PS-2000, pH 8.5, 37° C.
T4 construct: purchased Boehringer Manheim Co., Ltd
Text: as §1, §2
Each of aqueous solutions (1 ml) of the inhibitors which solutions were various in their respective concentrations was added to 0.3 ml of a buffer solution (a 150 mM aqueous sodium chloride solution containing 50 mM Tris, pH 8.5 ), and the resulting solution was heated for 5 minutes. Then, 0.1 ml of a Factor Xa solution (a 150 mM aqueous sodium chloride solution containing 50 mM Tris and 20 mM calcium chloride, pH 8.5) was added, followed by incubation for 5 minutes. Subsequently, a 5% polyvinyl pyrrobidone solution (0.1 ml) containing 10 mM PS-2000 was added, followed by incubation for 5 min. Thereafter, 2 ml of terminating color reagent was added. After standing for 10 minutes, absorbance at 700 nm was measured and IC50 was determined in the manner described above.

thrombin = biological target: T5, thrombin (Homo sapiens, UniProt P00734); experiment: Thrombin-inhibiting activity, synthetic substrate PS-915; assay type: biochemical; settings: PS-915, pH 8.5, 37° C.
T5 construct: purchased Sankyo (Color Test ATIII kit)
Text: as §1, §2
Each of aqueous solutions (0.1 ml) of the inhibitors which solutions were various in their respective concentrations was added to 0.4 ml of a buffer solution (a 150 mM aqueous sodium chloride solution containing 150 mM Tris, pH 8.5), and the resulting solution was heated for 5 minutes. To this solution was added 0.2 ml of thrombin solution, followed by incubation for 5 minutes. Then, 0.1 ml of a PS-915 solution (10 mM) was added, followed by incubation for 5 minutes. Thereafter, 2 ml of terminating color reagent was added. After standing for 10 minutes, absorbance at 700 nm was measured, and IC50 was determined in the manner described above.

plasmin [2] = biological target: T1, plasmin; experiment: Plasmin-inhibiting activity, synthetic substrate PS-994; assay type: biochemical; set-up: purchased Sankyo (Color Test α2 -D1 Kit); settings: PS-994, pH 7.8, 37° C.
Text: as §1, §2
Target sequence in this assay (P00747 581-810 limits assumed, species assumed): as the sequence (P00747 581-810 limits assumed, species assumed) above
Target sequence in this assay (P00747 97-580 partner limits assumed, species assumed): as the sequence (P00747 97-580 partner limits assumed, species assumed) above
Each of aqueous solutions (0.1 ml) of the inhibitors which solutions were various in their respective concentrations was added to 0.4 ml of a buffer solution (a 150 mM aqueous sodium chloride solution containing 100 mM Tris, pH 7.8), and the resulting solution was heated for 5 minutes. To this solution was added 0.2 ml of plasmin solution, followed by incubation for 5 minutes, and then 0.1 ml of a PS-994 solution (10 mM) was added, and then incubated for 5 minutes. After completion of the reaction, 2.0 ml of terminating color reagent was added, and after standing for 10 minutes, absorbance at 700 nm was measured. A concentration of the inhibitor in the reaction system at which the absorbance was one-half that obtained in the absence of the inhibitor was determined as IC50.

plasmin [3] = biological target: T1, plasmin; experiment: Inhibitory activity on fibrin decomposition by plasmin (natural substrate); assay type: biochemical; set-up: Standard human serum (0.1 ml); from tissue; settings: concentration doubling time for complete dissolution, 25° C.
Procedure: The determination was carried out by the method of Okamoto et al. (see Keio Journal of Medicine, vol. 11, p. 105 (1962).
Standard human serum (0.1 ml), 0.4 ml of each of 1/20 M potassium phosphate sodium physiological salt buffer solutions (pH 7.4) containing various concentrations of each inhibitor, and 0.1 ml of a solution of streptokinase in physiological saline (1000 U/ml) were stirred and then cooled at 0° C. for 10 minutes. Thereto was added 0.05 ml of a solution of thrombin in physiological saline (100 NIHU/ml, mfd. by Parke Davis Co. Ltd.) at 0° C. After standing for 1 minute, 0.3 ml of a 0.33% solution of bovine fibrinogen (F-4753, available from Sigma Chemical Co.) in physiological saline was added, and the resulting mixture was allowed to stand at 25° C. The solubility was measured every minute by the standard of judgement of Nakamura (see Allergy, vol. 5, p. 1 (1956)) and the time required for complete dissolution was determined. A concentration of the inhibitor at which said time is twice that required in the absence of the inhibitor was determined as IC50.
Target sequence in this assay (P00747 581-810 limits assumed): as the sequence (P00747 581-810 limits assumed, species assumed) above
Target sequence in this assay (P00747 97-580 partner limits assumed): as the sequence (P00747 97-580 partner limits assumed, species assumed) above

plasmin [4] = biological target: T1, plasmin; set-up: purchased Sankyo (Color Test α2 -D1 Kit); settings: cited from earlier work
Target sequence in this assay (P00747 581-810 limits assumed, species assumed): as the sequence (P00747 581-810 limits assumed, species assumed) above
Target sequence in this assay (P00747 97-580 partner limits assumed, species assumed): as the sequence (P00747 97-580 partner limits assumed, species assumed) above

plasmin [5] = biological target: T1, plasmin; set-up: purchased Sankyo (Color Test α2 -D1 Kit); settings: cited from earlier work; remark: listed apart in the source
Target sequence in this assay (P00747 581-810 limits assumed, species assumed): as the sequence (P00747 581-810 limits assumed, species assumed) above
Target sequence in this assay (P00747 97-580 partner limits assumed, species assumed): as the sequence (P00747 97-580 partner limits assumed, species assumed) above

T4 sequence (P00742 235-488 limits assumed): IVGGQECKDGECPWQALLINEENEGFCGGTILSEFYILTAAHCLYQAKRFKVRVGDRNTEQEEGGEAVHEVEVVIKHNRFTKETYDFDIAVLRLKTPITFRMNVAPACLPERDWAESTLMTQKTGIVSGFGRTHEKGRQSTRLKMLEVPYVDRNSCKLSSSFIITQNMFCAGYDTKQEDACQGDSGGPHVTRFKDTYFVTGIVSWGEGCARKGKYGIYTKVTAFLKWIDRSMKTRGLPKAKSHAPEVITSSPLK
T4 sequence (P00742 41-179 partner limits assumed): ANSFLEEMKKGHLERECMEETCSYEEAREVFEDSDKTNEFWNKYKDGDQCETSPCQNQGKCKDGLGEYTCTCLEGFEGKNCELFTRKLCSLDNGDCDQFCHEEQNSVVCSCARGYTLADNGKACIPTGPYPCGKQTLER
T2 sequence (P03952 391-638 limits assumed): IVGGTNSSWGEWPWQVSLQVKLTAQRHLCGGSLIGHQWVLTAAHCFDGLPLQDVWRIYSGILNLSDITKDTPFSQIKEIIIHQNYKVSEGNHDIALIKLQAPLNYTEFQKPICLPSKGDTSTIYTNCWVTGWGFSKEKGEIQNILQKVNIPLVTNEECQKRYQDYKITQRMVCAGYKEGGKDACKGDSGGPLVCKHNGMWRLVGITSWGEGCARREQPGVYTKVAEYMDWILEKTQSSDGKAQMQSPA
T2 sequence (P03952 20-390 partner limits assumed): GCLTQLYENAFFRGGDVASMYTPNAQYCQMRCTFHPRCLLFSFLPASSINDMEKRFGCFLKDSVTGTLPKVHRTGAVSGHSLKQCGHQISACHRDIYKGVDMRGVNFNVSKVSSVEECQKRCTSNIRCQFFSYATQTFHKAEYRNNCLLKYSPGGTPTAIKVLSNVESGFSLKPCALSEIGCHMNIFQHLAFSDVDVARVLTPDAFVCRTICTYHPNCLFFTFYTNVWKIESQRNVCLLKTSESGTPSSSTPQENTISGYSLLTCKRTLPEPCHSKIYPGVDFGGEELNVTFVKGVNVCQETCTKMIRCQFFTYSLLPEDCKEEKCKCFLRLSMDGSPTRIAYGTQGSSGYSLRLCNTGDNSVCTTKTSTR

Compound	antiplasmin activity (plasmin [1])	inhibition of proteases other than plasmin, for example, thrombin and trypsin (thrombin and trypsin)	pIC50 (human plasma kallikrein; Table 4)	pIC50 (trypsin; Table 4)	pIC50 (human Factor Xa; Table 4)	pIC50 (thrombin; Table 4)	pIC50 (plasmin [2]; Table 4)	pIC50 (plasmin [3]; Table 4)	other results
CN(C)C(=O)COC(=O)Cc1ccc(OC(=O)c2ccc(NC(=N)N)cc2)cc1 [Camostat]	have antiplamin activity	strongly inhibit							
Cc1ccc(S(=O)(=O)NCCCC[C@@H](NC(=O)OCC(C)C)C(=O)N[C@@H](Cc2ccccc2)C(=O)N[C@H](C=O)CCCCN)cc1 [Compound 1, N-α-Isobutoxycarbonyl-N-ε-(p-tosyl)-D-lysyl-L-phenylalanyl-L-lysinal hydrochloride]			6.74	5.55	5.09	< 3.00	7.47	6.64	
CC(=O)N[C@H](CCCCNS(=O)(=O)c1ccc(C)cc1)C(=O)N[C@@H](Cc1ccccc1)C(=O)N[C@H](C=O)CCCCN [Compound 3, N-α-Acetyl-N-ε-(p-tosyl)-D-lysyl-L-phenylalanyl-L-lysinal hydrochloride] (Ac-[dK](Tos)-Phe-Lys-aldehyde)			5.31	4.57	3.70	< 3.00	6.18	6.43	
Cc1ccc(S(=O)(=O)NCCCC[C@@H](NS(=O)(=O)c2ccc(C)cc2)C(=O)N[C@@H](Cc2ccccc2)C(=O)N[C@H](C=O)CCCCN)cc1 [Compound 5, N-α-N-ε-Di(p-tosyl)-D-lysyl-L-phenylalanyl-L-lysinal hydrochloride] (Tos-[dK](Tos)-Phe-Lys-aldehyde)			6.27	5.49	4.80	< 3.00	7.49	6.11	
Cc1ccc(S(=O)(=O)NCCCC[C@@H](N)C(=O)N[C@@H](Cc2ccccc2)C(=O)N[C@H](C=O)CCCCN)cc1 [Compound 7, N-ε-(p-Tosyl)-D-lysyl-L-phenylalanyl-L-lysinal dihydrochloride] (H-[dK](Tos)-Phe-Lys-aldehyde)			6.02	4.74	3.80	< 3.00	6.77	6.57	
Cc1ccc(S(=O)(=O)NCCCC[C@@H](NC(=O)OCC(C)C)C(=O)N[C@@H](Cc2ccccc2)C(=O)N[C@@H](CCCCN)C(=O)CCl)cc1 [Compound 13, N-α-Isobutoxycarbonyl-N-ε-(p-tosyl)-D-lysyl-L-phenylalanyl-L-lysine chloromethyl ketone hydrochloride]			6.96	6.17	5.54	5.60	7.51	6.36	
CC(=O)N[C@@H](CC(C)C)C(=O)N[C@@H](CC(C)C)C(=O)N[C@H](C=O)CCCNC(=N)N [Compound A4, AcLeuLeuArgH.1/2H2 SO4.H2 O (leupeptin), reference compound]									pIC50 (human plasma kallikrein; Table 3): 3.89; pIC50 (trypsin; Table 3): 6.11; pIC50 (human Factor Xa; Table 3): 4.85; pIC50 (thrombin; Table 3): 3.23; pIC50 (plasmin [2]; Table 3): 4.70; pIC50 (plasmin [3]; Table 3): 5.26
CCOC(=O)c1ccc(OC(=O)CCCCCN=C(N)N)cc1.CS(=O)(=O)O [FOY]	have antiplamin activity	strongly inhibit							
N=C(N)Nc1ccc(C(=O)Oc2ccc3cc(C(=N)N)ccc3c2)cc1 [Nafamstat]	have antiplamin activity	strongly inhibit							
CC(=O)N[C@@H](CC(C)C)C(=O)N[C@@H](CC(C)C)C(=O)N[C@H](C=O)CCCCN [acetyl-L-leucyl-L-leucyl-lysinal] (Ac-Leu-Leu-Lys-aldehyde)	has antiplasmin activity								
NC[C@H]1CC[C@H](C(=O)O)CC1 [t-AMCHA, trans-aminoethylcyclohexanecarboxylic acid]									ability to inhibit decomposition of other substrates by plasmin, e.g. fibrinogen (plasmin [4]): substantially no ability to inhibit; inhibition of fibrinolysis by plasmin (plasmin [5]): inhibit only fibrinolysis by plasmin
NCCCCCC(=O)O [ε-Aminocaproic acid]									ability to inhibit decomposition of other substrates by plasmin, e.g. fibrinogen (plasmin [4]; background, related art): substantially no ability to inhibit; inhibition of fibrinolysis by plasmin (plasmin [5]; background, related art): inhibit only fibrinolysis by plasmin
aprotinin	have antiplamin activity	strongly inhibit							
